According to BindingDB's records for patent US11718589 (Case Western Reserve University, 2023):
pIC50: −log10 of the molar value.

Biological target: T1, 15-hydroxyprostaglandin dehydrogenase [NAD(+)] (Homo sapiens, UniProt P15428)
T1 sequence (P15428 whole entry): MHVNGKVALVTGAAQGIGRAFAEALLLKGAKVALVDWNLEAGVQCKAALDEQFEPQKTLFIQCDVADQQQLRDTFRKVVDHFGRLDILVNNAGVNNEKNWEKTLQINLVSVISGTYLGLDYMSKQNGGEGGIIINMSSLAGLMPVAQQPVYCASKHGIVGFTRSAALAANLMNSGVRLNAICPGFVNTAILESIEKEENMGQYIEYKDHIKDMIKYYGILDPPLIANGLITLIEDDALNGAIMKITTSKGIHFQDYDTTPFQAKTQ
Assay: In Vitro Assay

SMILES | pIC50
CCNC(=O)c1cc2nc(-c3ccc(OC)cc3)cc(C(F)(F)F)n2n1 [US11718589, Compound 7a] | < 5.60
CCCC[S+]([O-])c1cc2nc(-c3ccc(OC)cc3)cc(-c3ccccc3)n2n1 (stereo unspecified) [US11718589, Compound 5a] | 7.41
CCCC[S+]([O-])c1cc2nc(-c3ccc(OC)cc3)cc(C(F)(F)F)n2n1 (stereo unspecified) [US11718589, Compound 3a] | 7.45

More lines, now with the values ahead:

pIC50 | SMILES
7.23 | CCCC[S+]([O-])c1cc2nc(-c3ccc(OC)cc3)cc(-c3ccc(F)cc3)n2n1 (stereo unspecified) [US11718589, Compound 6a]
< 5.60 | COc1ccc(-c2cc(C(F)(F)F)n3nc(C(=O)NCCO)cc3n2)cc1 [US11718589, Compound 12a]
< 5.60 | CCCCS(=O)(=O)c1cc2nc(-c3ccc(OC)cc3)cc(C(F)(F)F)n2n1 [US11718589, Compound 4a]
